Assay results from patent publication US20230330081A1, “PHARMACEUTICAL COMPOSITION FOR TREATING TUMORS” (EISAI R&D MANAGEMENT CO., LTD., priority 2020, published 2023).

How the values were obtained:
Assay type in all cases: in vivo
[1] = system: mouse renal cell carcinoma cell line RAG; assay: Antitumor effect in mouse renal cell carcinoma cell line (RAG) graft model
Protocol: Example 2 Antitumor effect by combination of compound A and anti-PD-1 antibody in mouse renal cell carcinoma cell line (RAG) graft model
The antitumor effect of administering compound A and anti-PD-1 antibody was evaluated in BALB/c mice (BALB/cAnNCriCrlj, female, Japan Charles River) with 10 mice per group.
The grafted cells were pre-conditioned in BALB/c mice. The mouse renal cell carcinoma cell line RAG (ATCC) was suspended in EIBSS to a concentration of 2×10^8/mL. An equal volume of Matrigel™ matrix (Japan Becton Dickinson) was added to and thoroughly mixed with the suspension. The mixture was subcutaneously grafted on the right side of BALB/c mice (BALB/cAnNCriCrlj, female, Japan Charles River), at 0.1 mL each. After grafting, the formed tumors were extracted and finely cut. A Tumor Dissociation Kit, Mouse (Miltenyi Biotec K.K.) was then used for stirring in a GentleMACS (Miltenyi Biotec K.K.) to obtain a monocellular suspension. After passing through a 70 μm cell strainer, the cells were collected by centrifugation and cultured in medium containing 10% bovine serum.
The mouse renal cell carcinoma cell line RAG established by this method was suspended in HBSS to a concentration of […]. The mixture was subsequently grafted onto the right side of BALB/c (BALB/cAnNCriCrij, female, Japan Charles River) in amounts of 0.1 mL each, and the antitumor effect was evaluated.
On the 7th day after grafting, the long and short diameters of the tumors were measured using an electronic digital caliper (Digirnatic™ caliper by Mitsutoyo Corp.). The mice were divided into groups in such a manner that the average tumor volumes were the same in each group. The tumor volumes were calculated by the following formula.
(§1) Tumor volume (mm)=Long diameter (n)×short diameter (mm)×short diameter (mm)/2
(§2) Compound A was dissolved in water for injection (Otsuka Pharmaceutical Factory, Inc.) to a concentration of 2.5 mg/mL. The anti-mouse PD-1 antibody (BioXcell) was diluted with physiological saline (Otsuka Pharmaceutical Factory, Inc.) to a concentration of 1 mg/mL.
Mice in the compound A administration group were given compound A by oral administration at a dose of 25 mg/kg (10 mL/kg), once per day for 7 days, Mice in the anti-PD-1 antibody administration group were intraperitoneally administered a dose of 200 lig/mouse (200 μL/mouse) on day 0 and day 3, where the starting day of administration was defined as day 0. The mice in the compound A and anti-PD-1 antibody combination group were administered both drugs in the same manner described above.
With the starting day of administration defined as day 0, the tumor volume of each mouse was measured on day 3 and day 7, The mean tumor volumes in each group are shown in Table 2 and FIG. 2. […]

[2] = system: mouse hepatocellular carcinoma cell line BNL 1 ME A.7R.1; assay: Antitumor effect in mouse hepatocellular carcinoma cell line (BNL 1 ME A.7R.1) graft model
Protocol: Example 3 Antitumor effect by combination of compound A and anti-PD-1 antibody in mouse hepatocellular carcinoma cell line (BNI, 1 ME A.7R.1) graft model
The antitumor effect of administering compound A and anti-M-1 antibody was evaluated in BALB/c mice (BALB/cAnNCriCrli, female, Japan Charles River) with 10 mice per group.
The grafted cells were pre-conditioned in BALB/c mice, A suspension of the mouse hepatocellular carcinoma cell line line BNL 1 ME A.7R.1 (ATCC) was subcutaneously grafted onto the right side of BALB/c mice (BALB/cArtNCriCrlj, male, Japan Charles River), at 5×10^6 cells per mouse. After grafting, the formed tumors were extracted and finely cut. The mixture was then stirred with a GentleMACS (Miltenvi Biotec K.K.) to obtain a monocellular suspension. After passing through a cell strainer, the cells were collected by centrifugation and cultured.
The mouse hepatocellular carcinoma cell line BNL 1 ME A.7R.1 established by this method was suspended in HBSS to a concentration of 1×10^8/mL. The mixture was subsequently grafted onto the right side of BALB/c (BALB/cAnNCrICrlj, female, Japan Charles River) in amounts of 0.1 mL each, and the antitumor effect was evaluated.
On the 4th day after grafting, the long and short diameters of the tumors were measured using an electronic digital caliper (Digimaticlm caliper by Mitsutoyo Corp.). The mice were divided into groups in such a manner that the average tumor volumes were the same in each group. The tumor volumes were calculated by the following formula.
Tumor volume […]=Long diameter (mm)×short diameter (mm)×short diameter (mm)/2
as §2
Mice in the compound A administration group were given compound A 1w oral administration at a dose of 25 mg/kg (10 mL/kg), once per day for 7 days. Mice in the anti-PD-1 antibody administration group were intraperitoneally administered a dose of 200 μg/mouse (200 μL/mouse) on day 0 and day 3, where the starting day of administration was defined as day 0. The mice in the compound A and anti-PD-1 antibody combination group were administered both drugs in the same manner described above.
With the starting day of administration defined as day 0, the tumor volume of each mouse was measured on day 3 and day 7.
The tumor volumes in the control group and in each group on day 7 were compared in Dunnett's multiple comparison test. The final significance level was as follows.

[3] = system: mouse breast cancer cell line 4T1-Luc2 AcGFP; assay: Antitumor effect in mouse breast cancer cell line (4T1-Luc2 AcGFP) graft model; settings: BALB/c mice, anti-PD-1 antibody 0.2 mg/mouse intraperitoneal day 0, 4, 7, 11
Protocol: Example 1 Antitumor effect by combination of compound A and anti-PD-1 antibody in mouse breast cancer cell line (4T1-Luc2 AcGFP) graft model
The antitumor effect of administering compound A and anti-PD-1 antibody was evaluated in BALB/c mice (BALB/cAriNCriCrij, female, Japan Charles River) with 6 mice per group.
The mouse breast cancer cell line 4T1 (ATCC) was seeded in a 6-well microplate (Falcon), at a cell count of 1.5×10^5 per well. The culture medium used was RPMI-1640 medium containing 10% FBS, penicillin, streptomycin and 2-mercaptoethanol (FujiFilm-Wako). The seeded cells were cultured overnight using an incubator under conditions of 5% CO2, 37° C. The culture medium was replaced on the following day.
Vector pPBcmvIP-mcs was constructed from PB-CMV-MCS-EF1α-Puro vector (SBI; Catalog No.: PB510B-1), removing EF1-Puro and substituting 1RES-Puro. A Luc2/AcGFP fusion gene was then inserted between the pPBcinvIP-mcs CMV promoter and IRES to express Luciferase (Luc) and Green Fluorescent Protein (GFP), to obtain vector pPBcinvIP Luc2-AcGFP. During the process of constructing each vector, insertion of the separated fragments was confirmed by an established method.
The vector pPBcrnvIP Luc2-AcGFP in 10 mM Tris-C1 (pH 8.0) and 1 mlbJ EDTA (pH 8.0) (“TE Buffer”) (1.67 μg), Super PiggyBac Transposase Expression Vector (System Biosciences, LLC) in TE Buffer (0.33 μg) and X-treamGene reagent (Roche) (8 μL) were mixed, and the mixture was adjusted to a total amount of 210 μL with Opti-MEM (Thermo Fischer Scientific). The obtained mixture was allowed to stand at room temperature for 15 minutes, and then added to the cultured 4T1 cells. The medium was exchanged and subculturing was carried out in a T75 flask, after which culturing was continued under conditions of 5% CO2, 37° C. After 4 days, culturing was carried out in 2 μg/mL puromycin-containing medium.
Cells were selected twice with a flow cytometer, using AcGFP positivity as the marker. A mycoplasma removal reagent was added to the cells and culturing was continued for 8 days.
Cells of the mouse breast cancer cell line 4T1-Luc2 AcGFP established by the method described above were suspended in HBSS (FujiFilm-Wako) to a concentration of 2×10^7/mL. The mixture was grafted into mammary gland fat of BALB/c (BALB/cAriNCriCrlj, female. Japan Charles River) in amounts of 0.05 mL each, and the antitumor effect was evaluated.
On the 4th day after grafting, the long and short diameters of the tumors were measured using an electronic digital caliper (Digimatic™ caliper by Mitsutoyo Corp.), The mice were divided into groups in such a manner that the average tumor volumes were the same in each group. The tumor volumes were calculated by the following formula.
as §1
Compound A was dissolved in water for injection (Otsuka Pharmaceutical Factory, Inc.) to a concentration of 2.5 mg/mL. The anti-mouse PD-1 antibody (BioXcell) was diluted with PBS(−) (FujiFilm-Wako) to a concentration of 1 mg/mL. […]
With the starting day of administration defined as day 0, the tumor volume of each mouse was measured on day 4, day 7, day 11 and day 14.
The tumor volume on day 14 was statistically analyzed by a One-way ANOVA statistical test, or if […] was found in the test, by the Tukey-Kramer method. […]

[4] = day 7, Dunnett's multiple comparison test

In the case of `CNC(=O)n1ccc2cc(Oc3ccnc(NC(=O)c4ccc(C5CCN(CCO)CC5)cc4)c3)c(OCCOC)cc21` [Compound A, 5-((2-(4-(1-(2-hydroxyethyl)piperidin-4-yl)benzamide)pyridin-4-yl)oxy)-6-(2-methoxyethoxy)-N-methyl-1H-indole-1-carboxamide], the “mean tumor volume, Day 0” value ([1]; Day 0 (starting day of administration), BALB/c mice, 10 per group, compound A 25 mg/kg oral once per day for 7 days, anti-PD-1 antibody 200 ug/mouse intraperitoneal day 0 and 3) is reported as 58.8 mm^3, the “mean tumor volume, Day 3” value ([1]; Day 3, BALB/c mice, compound A 25 mg/kg oral once per day, anti-PD-1 antibody 200 ug/mouse intraperitoneal day 0 and 3) is reported as 72.5 mm^3 and the “mean tumor volume, Day 7” value ([1]; Day 7, BALB/c mice, compound A 25 mg/kg oral once per day, anti-PD-1 antibody 200 ug/mouse intraperitoneal day 0 and 3) is reported as 107.5 mm^3. The “difference in tumor volume between the control group and the treatment group” value [1, 4] was “No statistically significant difference”, the “mean tumor volume, Day 0” value ([2]; Day 0 (starting day of administration), BALB/c mice, 10 per group, compound A 25 mg/kg oral once per day for 7 days, anti-PD-1 antibody 200 μg/mouse intraperitoneal day 0 and 3) was 109.0 mm^3 and the “mean tumor volume, Day 3” value ([2]; Day 3, BALB/c mice, compound A 25 mg/kg oral once per day, anti-PD-1 antibody 200 μg/mouse intraperitoneal day 0 and 3) was 223.6 mm^3. The “mean tumor volume, Day 7” value ([2]; Day 7, BALB/c mice, compound A 25 mg/kg oral once per day, anti-PD-1 antibody 200 μg/mouse intraperitoneal day 0 and 3) was 221.4 mm^3, the “difference in tumor volume between the control group and the treatment group” value [2, 4] was “No statistically significant difference” and the “mean tumor volume, Day 0” value ([3]; Day 0 (starting day of administration), 6 per group, compound A 25 mg/kg oral once per day for 14 days) was 77.3 mm^3. For the same compound, the “mean tumor volume, Day 4” value ([3]; Day 4, compound A 25 mg/kg oral once per day) was 139.0 mm^3, the “mean tumor volume, Day 7” value ([3]; Day 7, compound A 25 mg/kg oral once per day) was 131.2 mm^3 and the “mean tumor volume, Day 11” value ([3]; Day 11, compound A 25 mg/kg oral once per day) was 226.0 mm^3. For the same compound, the “mean tumor volume, Day 14” value ([3]; Day 14, compound A 25 mg/kg oral once per day) was 314.6 mm^3.
